We go through one compound from US10894817B2, “Fatty acid modified urocortin-2 analogs for the treatment of diabetes and chronic kidney disease” (priority 2016, dated 2021).

The conditions of series [1]: cynomolgus monkey, in vivo, sc, 96.4 nmol/kg.
Description: (§1) Plasma concentrations of compounds were determined by LC/MS methods. Each method measured the intact compound; peptide plus linked time extension. For each assay, the compound and an analog, used as an internal standard (IS), were extracted from 100% mouse, rat or monkey plasma (25 μl) using acetonitrile. Two distinct layers were formed upon centrifugation with the compound and the IS located in the supernatant layer. An aliquot of the supernatant (80 μl) was transferred to a Thermo Protein Precipitation Plate with water (150 μl) and formic acid (25 μl) followed by mixing. A final 31% acetonitrile in 10% formic acid sample (10 μl) was loaded onto a Supelco Analytical Discovery BIO Wide Pore C5-3 column (5 cm×1 mm, 3 μm). The column effluent was directed into a Thermo Q-Exactive mass spectrometer for detection and quantitation.
(§2) Male Cynomolgus monkeys were administered a single subcutaneous dose or intravenous dose (96.4 nmol/kg) of a compound described herein in 20 mM Tris-HCl Buffer (pH 7) at a volume of 1 mL/kg. Blood was collected from each animal at 2, 6, 24, 48, 72, 96, 168, 240, 336, 408, and 504 hours postdose for pharmacokinetic characterization.
Male Cynomolgus monkeys were also administered a single subcutaneous dose (50 nmol/kg) of a compound described herein in 20 mM Tris-HCl Buffer (pH 8) at a volume of 0.26 mL/kg. Blood was collected from each animal at 3, 6, 12, 24, 48, 72, 96, 120, 168, 192, 240, 336, 408, and 504 hours postdose for pharmacokinetic characterization.
For series [2] the following is noted: cynomolgus monkey, in vivo, iv, 96.4 nmol/kg, T1/2.
Description: Plasma concentrations of compounds were determined by LC/MS methods. Each method measured the intact compound; peptide plus linked time extension. […] Two distinct layers were formed upon centrifugation with the compound and the IS located in the supernatant layer. An aliquot of the supernatant (80 μl) was transferred to a Thermo Protein Precipitation Plate with water (150 μl) and formic acid (25 μl) followed by mixing. A final 31% acetonitrile in 10% formic acid sample (10 μl) was loaded onto a Supelco Analytical Discovery BIO Wide Pore C5-3 column (5 cm×1 mm, 3 μm). The column effluent was directed into a Thermo Q-Exactive mass spectrometer for detection and quantitation.
as §2
For series [3] the following is noted: mouse, in vivo, sc, 386 nmol/kg.
Description: as §1
Male CD-1 mice were administered a single subcutaneous dose (350, 386 or 388 nmol/kg) of a compound described herein in 20 mM Tris-HCl Tris Buffer (pH 7 or 8) at a volume of 0.05 or 0.06 mL/animal. Blood was collected at 6, 12, 24, 48, 72, 96, 120 and 168 hours postdose for pharmacokinetic characterization (101).
Series [4] relates to remnant kidney mice. The series can be described thus: Mouse remnant kidney model of hypertensive nephropathy (Example 2, 9 weeks). The format is in vivo. The conditions noted are these: all groups. As to the method:
A mouse remnant kidney model (“remnant”) involving surgical reduction of ¾ of the entire renal mass is used as a preclinical model of hypertensive renal disease (Kidney Int. 64(1):350-5, (2003)).
Surgical reduction of renal mass (N=40 mice) or sham surgery is performed by Taconic, Inc. in male 129S6 mice at 8-9 weeks of age (obtained by Taconic, Inc.). Randomization into 5 equivalent groups of 8 remnant kidney mice is done at 15 weeks post-surgery by urine albumin to creatinine ratio (ACR) and body weight.
Study duration is 9 weeks. After 2 weeks of dosing, a necropsy is done on all groups except the 144 nmol/kg group of Example 2 which continues to be monitored for ACR for another 7 weeks to determine the durability of the effects of the compound of Example 2 on urine ACR. […]
Body weight is determined at baseline and at termination with a Metler Toledo Balance. […] Serum is analyzed for BUN and creatinine on a Roche Hitachi Modular Analytics P analyzer with reagents from Roche. […]
Urine albumin and creatinine are determined on a Roche Hitachi Modular Analytics P analyzer. Urine creatinine is determined with the Creatinine Plus reagent by Roche. […]
All data are analyzed with JMP v.8.0 software (SAS Institute). […] All other data were evaluated by ANOVA with log transformed data if the data were skewed and a Students unpaired t test. […]

Where two headings read alike, the source gives them in different places. Starred links: 1 amine or outer side, 2 acyl side, 3 side chain; linkers in the order of their positions; H or OH if unused. Residues, ends and D or L forms follow the SMILES beside them. Groups on a side chain read outwards from the residue. *: point of attachment. C20 diacid = O=C(O)CCCCCCCCCCCCCCCCCCC(=O)*; γGlu = O=C(O)[C@H](CCC(=O)[*:2])N[*:1]; AEEA = NCCOCCOCC(=O)O

For the compound `CC[C@H](C)[C@H](NC(C)=O)C(=O)N[C@H](C(=O)N[C@@H](CC(C)C)C(=O)N[C@@H](CO)C(=O)N[C@@H](CC(C)C)C(=O)N[C@@H](CC(=O)O)C(=O)N[C@H](C(=O)N1CCC[C@H]1C(=O)N[C@H](C(=O)NCC(=O)N[C@@H](CC(C)C)C(=O)N[C@@H](CC(C)C)C(=O)N[C@@H](CCC(N)=O)C(=O)N[C@H](C(=O)N[C@@H](CC(C)C)C(=O)N[C@@H](CC(C)C)C(=O)N[C@@H](CCC(=O)O)C(=O)N[C@@H](CCC(N)=O)C(=O)N[C@@H](CCC(=O)O)C(=O)N[C@@H](CCCCN)C(=O)N[C@@H](CCC(N)=O)C(=O)N[C@@H](CCC(=O)O)C(=O)N[C@@H](CCCCN)C(=O)N[C@@H](CCC(=O)O)C(=O)N[C@@H](CCCCN)C(=O)N[C@@H](CCC(N)=O)C(=O)N[C@@H](CCC(N)=O)C(=O)N[C@@H](C)C(=O)N[C@@H](CCCCNC(=O)COCCOCCNC(=O)COCCOCCNC(=O)CC[C@H](NC(=O)CC[C@H](NC(=O)CCCCCCCCCCCCCCCCCCC(=O)O)C(=O)O)C(=O)O)C(=O)N[C@H](C(=O)N[C@@H](CC(N)=O)C(=O)N[C@@H](C)C(=O)N[C@@H](CCC(N)=O)C(=O)N[C@H](C(=O)N[C@@H](CC(C)C)C(=O)N[C@@H](C)C(=O)N[C@@H](CCC(N)=O)C(=O)N[C@H](C(N)=O)C(C)C)[C@@H](C)CC)[C@@H](C)O)[C@@H](C)CC)[C@@H](C)CC)C(C)C)C(C)C` [Example 2] (Ac-IVLSLDVPIGLLQILLEQEKQEKEKQQAK([AEEA-AEEA-γGlu-γGlu-C20 diacid])TNAQILAQV-NH2), the values for the CL/F in series [1] (CL/F) and in series [3] were 0.41 mL/h/kg and 8.3 mL/h/kg, respectively. Moreover, the half-life in series [1] (T1/2) is 97 h; in series [2], 124 h; in series [3], 20 h. Besides, in series [4], the “deaths during the study” value was “no deaths”.
